The term IC50 denotes the concentration needed to halve the response being measured. In general, ED50 refers to the midpoint of the dose-response relation.

The values below come from patent US5885994A, “Tetrahydroquinoxaline dopamine D4 receptor antagonists” (Warner-Lambert Company, priority 1998, dated 1999).

Structures are written as SMILES. Where two headings read alike, the source gives them in different places.

The target of one assay is T1, human D4.2 receptor (Homo sapiens, UniProt P21917, DEL265-296).
T1 construct: expressed in transfected cells; host or cells: CHO K1 cells
T1 sequence (P21917 with tags, fused parts or gaps DEL265-296): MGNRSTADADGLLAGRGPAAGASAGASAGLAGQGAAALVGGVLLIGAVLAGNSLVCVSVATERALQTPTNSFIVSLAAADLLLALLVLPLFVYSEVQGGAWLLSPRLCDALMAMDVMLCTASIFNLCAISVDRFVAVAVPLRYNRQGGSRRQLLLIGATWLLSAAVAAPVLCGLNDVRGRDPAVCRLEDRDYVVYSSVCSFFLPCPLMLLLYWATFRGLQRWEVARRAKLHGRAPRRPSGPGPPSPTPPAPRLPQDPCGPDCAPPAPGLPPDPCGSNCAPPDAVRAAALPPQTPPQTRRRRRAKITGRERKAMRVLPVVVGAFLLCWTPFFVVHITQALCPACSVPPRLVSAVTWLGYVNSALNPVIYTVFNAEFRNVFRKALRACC
As to the kind of experiment: Inhibition of [3H]spiperone binding to human dopamine D4.2 receptors. To be noted: human D4.2, CHO K1 membranes. From the text: (§1) A cell line expressing human dopamine D2 (Long form) receptors was purchased from Oregon Health Sciences University, Portland, Oreg. The D2 receptor cDNA was subcloned into an expression vector, pRc/CMV. The plasmids were transfected by electroporation into CHO K1 cells. A single stable transfectant, resistant to the antibiotic 418, was isolated and selected for use in the binding studies. For D4 binding, CHO K1 cells stably transfected to express the human recombinant dopamine D4.2 receptor subtype, as described by Shih, et al., "The expression and functional characterization of human dopamine D4.2 receptor in CHO K1 cells," Soc. Neurosci., 1995;21(Part 1):621.
(§2) CHO K1 cells expressing either human D2 and D4.2 receptors were grown in 162 cm^2 culture flasks in F12 medium (Gibco Laboratories, Grand Island, N.Y.) supplemented with 10% fetal bovine serum (FBS, Hyclone, Logan, Utah) in an atmosphere of 5% CO2 /95% air at 37° C. Cells were grown until confluent, after which growth medium was removed and replaced with 0.02% ethylene diamine tetracetate (EDTA) in a phosphate-buffered saline solution (Sigma Chemical Co., St. Louis, Mo.) and scraped from the flasks. The cells were centrifuged at about 1000×g for 10 minutes at […] and then resuspended in TEM buffer (25 mM Tris-HCl, pH 7.4, 5 mM EDTA, and 6 mM MgCl2) for D2 or the D4.2 buffer (50 mM Tris-HCl, pH 7.4, 5 mM EDTA, 1.5 mM CaCl2, 5 mM KCl, and 120 mM NaCl) and homogenized. The membranes were pelleted by centrifugation at 20,000×g at […] for 20 minutes. Then the pellets were resuspended in appropriate buffer at 1 mL/flask and stored at -70° C. until used in the receptor binding assay.
(§3) Receptor Binding Assays: D2,D4.2 Dopamine Receptors
(§4) After 60 minutes incubation at 25° C., the incubations were terminated by rapid filtration through Whatmann F/B lass fibre filters (soaked for 1 hour in 0.5% polyethylenimine) on a cell harvester, with three washes of 1 mL ice-cold buffer. Individual filter disks containing the bound ligand were placed in counting vials with 4 mL of scintillation fluid (Ready Gel, Beckman Instrument Inc., Fullerton, Calif.) and then counted in a Beckman LS-6800 liquid scintillation counter at an efficiency of 45%. Nonspecific binding was defined in presence of 1 mM of haloperidol.
(§5) Saturation and competition binding data were analyzed using an iterative nonlinear least-square curve-fitting Ligand program. In competition experiments, apparent Ki values were calculated from IC50 values by method of Cheng and Prusoff, "Relationship between the inhibition constant (Ki) and the concentration of inhibitor which causes 50% inhibition (IC50) of an enzymatic reaction," Biochem. Pharmacol., 1973;22:3099-3108. Experimental compounds were made up as stock solutions in dimethyl sulfoxide (DMSO). […] Each observation was carried out in triplicate. To allow these calculations, Ki values were measured for the interaction of various ligands with the receptor. […]

Assay [1] relates to amphetamine-stimulated locomotion. As to the kind of experiment: Blockade of amphetamine-stimulated locomotion in rats. Format: in vivo, rat. From the text:
PROTOCOL FOR THE BLOCKADE OF AMPHETAMINE-STIMULATED LOCOMOTION IN RATS
The blockade of amphetamine-stimulated locomotion procedure is a modification of the Locomotor Activity Protocol in the Omnitech Digiscan Activity Monitors described above. The blockade of amphetamine-stimulated locomotion procedure uses the central nervous system stimulant d-amphetamine to assess antipsychotic activity of dopaminergic agents.
Male Sprague-Dawley rats (Harlan Labs) were used for these studies. Drugs were dissolved in saline or water, and administered either orally (PO) or intraperitoneally (IP) in volumes of 5 mL/kg. Saline control rats and amphetamine (0.5 mg/kg IP) control rats are included with each study (n=4-6 rats per treatment group). For the IP studies, amphetamine is given 20 minutes prior to the drug, after which a 30 minute locomotor activity test is conducted. For the oral study, drug is dosed 30 minutes prior to the test, while amphetamine is given 15 minutes prior to the test, which allows time for oral absorption. Locomotor activity (centimeters travelled per 30 minute test) is measured in 16"×16" open chambers. Amphetamine generally produces a 2- to 3-fold increase in locomotion over saline controls. Drug effects are reported as percent reversal of amphetamine-stimulated locomotion. Significant changes in amphetamine-stimulated locomotion, relative to amphetamine treated controls, were determined by t-test. The dose which would reverse amphetamine-stimulated locomotion by 50% (ED50) and the 95% confidence limits were estimated by regression analysis.

The subject of assay [2] is synthesis rates of rat brain catecholamines. To be noted: ip.
Method: Test compounds were administered to rats i.p. 30 minutes before the injection of the L-aromatic amino acid decarboxylase inhibitor, NSD 1015 (100 mg/kg i.p.). Rats were sacrificed by decapitation 30 minutes later. The striatum and mesolimbic regions were rapidly dissected from the brains and stored at -70° C. until assayed. Synthesis rates of rat brain catecholamines were estimated by measuring the accumulation of the DA precursor DOPA after NSD 1015 administration by HPLC with electrochemical detection (Puglsey, et al., 1995). Each value represents the mean of four determinations and is expressed as a percent of the control values.
Another assay concerns the target human D2 receptor (Homo sapiens, UniProt P14416). As to the kind of experiment: Inhibition of [3H]spiperone binding to human dopamine D2 receptors. To be noted: human D2 (Long form), CHO K1 membranes.
Text: as §1, §2, §3, §4, §5

A further assay deals with T2, human DA D4.2 receptor (Homo sapiens, UniProt P21917, DEL265-296).
T2 construct: expressed in transfected cells
T2 sequence (P21917 with tags, fused parts or gaps DEL265-296): T1 sequence (P21917 with tags, fused parts or gaps DEL265-296)
The assay can be described thus: [3H]Thymidine uptake assay (block of quinpirole stimulation in CHO pro-5 cells transfected with human DA D4.2 receptor). In kind it is cell-based. To be noted: human D4.2, quinpirole-stimulated uptake. The procedure: Compounds were tested for their ability to bind to dopamine (DA) receptors as measured by their inhibition of [^3 H]spiperone binding to the human D2, and D4.2 receptors (Pugsley, et al., 1995). The ability of test compounds to block the stimulation of [^3 H]thymidine uptake in CHO pro-5 cells transfected with human DA D4.2 receptor cDNA caused by the DA agonist quinpirole was employed as an in vitro measure of DA receptor antagonist activity (Pugsley, et al., 1995). The effects of compounds on synthesis rates of rat brain catecholamines were estimated by measuring the accumulation of [3-(3,4-dihydroxyphenyl)-L-alanine (DOPA) after administration of the L-aromatic amino acid decarboxylase inhibitor, NSD 1015 (Pugsley, et al., 1995).
[^3 H]Thymidine Uptake Assay
The effects of test compounds on [^3 H]thymidine uptake were carried out essentially as described by Pugsley, et al., 1995. CHO p-5 cells transfected with human D4.2 cDNA were seeded into 96-well plates at a density of about 5000 cells/well and were grown at 37° C. in a minimum essential medium (aMEM, Gibco) with 10% calf serum for 2 days. The wells were then rinsed three times with serum-free media. Fresh media ([…]) was added along with […] of test compound in water or vehicle alone. Eight wells of each plate received […] of aMEM with 10% fetal calf serum. After culture for 16 to 17 hours, [3H]thymidine ([…]) was added for 4 hours. The cells were trypsinized and harvested onto filter mats with a 96-well Brandel cell harvester. The filters were counted in a Beta-Plate scintillation counter.

The test system of assay [3] is apomorphine-induced disruption of prepulse inhibition. To be noted: rat, background statement; cited from earlier work.

human D2 receptor, sequence (P14416 whole entry): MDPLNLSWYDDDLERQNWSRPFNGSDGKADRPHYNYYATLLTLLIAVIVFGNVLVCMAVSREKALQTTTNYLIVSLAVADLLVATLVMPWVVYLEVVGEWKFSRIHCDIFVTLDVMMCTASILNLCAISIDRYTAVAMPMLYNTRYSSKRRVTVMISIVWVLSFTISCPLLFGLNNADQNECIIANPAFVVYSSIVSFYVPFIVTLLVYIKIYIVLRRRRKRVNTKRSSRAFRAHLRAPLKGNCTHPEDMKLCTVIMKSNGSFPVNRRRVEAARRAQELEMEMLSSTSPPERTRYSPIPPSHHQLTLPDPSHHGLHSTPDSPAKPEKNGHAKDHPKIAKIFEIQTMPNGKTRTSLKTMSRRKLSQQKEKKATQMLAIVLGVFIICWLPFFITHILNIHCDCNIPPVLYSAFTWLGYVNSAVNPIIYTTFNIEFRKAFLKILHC

For `Cc1ccnc(N2CCN(Cc3ccc4c(c3)NCCN4)CC2)c1` [Example 10, 6-[4-(4-Methylpyridin-2-yl)piperazin-1-ylmethyl]-1,2,3,4-tetrahydroquinoxaline], the IC50 on human D4.2 receptor was found to be 35 nM.

The compound `Cc1cccc(N2CCN(Cc3ccc4c(c3)NCCN4)CC2)c1` [Example 9, 6-(4-m-Tolylpiperazin-1-ylmethyl)-1,2,3,4-tetrahydroquinoxaline] had an IC50 on human D4.2 receptor of 36.3 nM.

`Cc1ccc(N2CCN(Cc3ccc4c(c3)NCCN4)CC2)cc1Cl` [Example 1, 6-[4-(3-Chloro-4-methylphenyl)piperazin-1-ylmethyl]-1,2,3,4-tetrahydroquinoxaline]: the IC50 is 3.9 nM on human D4.2 receptor, 1810 nM on human D2 receptor and 10 nM at human DA D4.2 receptor. For the same compound, in assay [1] (rat, 3, 10, and 30 mg/kg IP), the “blockade of amphetamine-stimulated locomotion (result in words)” value is given as “dose-dependent blockade”. For the same compound, the ED50 was 9.1 mg/kg in assay [1] (rat, IP, read-out: blockade of amphetamine-stimulated locomotion ED50) and above 30 mg/kg in assay [1] (rat, PO, read-out: oral blockade of amphetamine-stimulated locomotion ED50). The “DA Synthesis in Rat Hippocampus” value in assay [2] is reported as “+62% of the control values”. In addition, the “DA Synthesis in Rat Striatum” value in assay [2] is listed as -9% of the control values.

On to `CN1CCc2cccc3c2[C@H]1Cc1ccc(O)c(O)c1-3` [apomorphine], for which, in assay [3], the “blocking of PPI by DA agonists (result in words)” value is recorded as “can be blocked”.

Consider `CN1CCN(C2=Nc3cc(Cl)ccc3Nc3ccccc32)CC1` [clozapine], for which the “antagonism of DA agonist-induced disruption of PPI (result in words)” value in assay [3] is “can be blocked”.

`O=C(CCCN1CCC(O)(c2ccc(Cl)cc2)CC1)c1ccc(F)cc1` [haloperidol]: the “antagonism of DA agonist-induced disruption of PPI (result in words)” value in assay [3] is “can be antagonized”.

With `Clc1ccc(N2CCN(Cc3ccc4c(c3)NCCN4)CC2)cc1` [Example 5, 6-[4-(4-Chlorophenyl)piperazin-1-ylmethyl]1,2,3,4-tetrahydroquinoxaline], the IC50 on human D4.2 receptor was 6 nM; at human DA D4.2 receptor, 19 nM. Besides, the “DA Synthesis in Rat Striatum” value in assay [2] is listed as “+20% of the control values”.

`Fc1ccc(N2CCN(Cc3ccc4c(c3)NCCN4)CC2)cc1` [Example 6, 6-[4-(4-Fluorophenyl)piperazin-1-ylmethyl]-1,2,3,4-tetrahydroquinoxaline] showed an IC50 at human D4.2 receptor of 50.6 nM.

As to `Cc1ccc(N2CCN(Cc3ccc4c(c3)NCCN4)CC2)cc1` [Example 8, 6-(4-p-Tolylpiperazin-1-ylmethyl)-1,2,3,4-tetrahydroquinoxaline], the results for the IC50 on human D4.2 receptor and against human DA D4.2 receptor were 11.1 nM and 8.2 nM, respectively. Moreover, the “DA Synthesis in Rat Striatum” value in assay [2] was “+39% of the control values”.

As for `Clc1ccc(N2CCN(Cc3ccc4c(c3)NCCN4)CC2)cc1Cl` [Example 7, 6-[4-(3,4-Dichlorophenyl)piperazin-1-ylmethyl]-1,2,3,4-tetrahydroquinoxaline], the figures for the IC50 at human D4.2 receptor and at human D2 receptor were 5 nM and 1650 nM, respectively. In assay [1] (rat, 30 mg/kg PO), the “blockade of amphetamine-stimulated locomotion” value is on record as 100%. The “DA Synthesis in Rat Striatum” value in assay [2] is given as “+23% of the control values”.

The compound `COc1ccc(N2CCN(Cc3ccc4c(c3)NCCN4)CC2)cc1` [Example 4, 6-[4-(4-Methoxyphenyl)piperazin-1-ylmethyl]-1,2,3,4-tetrahydroquinoxaline] yielded an IC50 at human D4.2 receptor of 39.3 nM.

With `c1ccc(N2CCN(Cc3ccc4c(c3)NCCN4)CC2)cc1` [Example 3, 6-(4-Phenylpiperazin-1-ylmethyl)-1,2,3,4-tetrahydroquinoxaline], the IC50 turned out to be 50 nM on human D4.2 receptor and 3200 nM at human D2 receptor.

On to `CC(N)Cc1ccccc1` (stereo not drawn) [amphetamine], for which the “blocking of PPI by DA agonists (result in words)” value in assay [3] was “can be blocked”.

`FC(F)(F)c1cccc(N2CCN(Cc3ccc4c(c3)NCCN4)CC2)c1` [Example 11, 6-[4-(3-Trifluoromethylphenyl)piperazin-1-ylmethyl]-1,2,3,4-tetrahydroquinoxaline]: the 50% inhibitory concentration (IC50) was 22 nM on human D4.2 receptor and 683 nM at human D2 receptor.
